Assay results as given in US12528767B2, “HDAC6 inhibitors and uses thereof” (Eikonizo Therapeutics, Inc., priority 2019, dated 2026).
“And” between values parts separate entries of the source, which are not always exact repeats. Identical values can stand only once. Like-named read-outs stand apart in the source and are kept apart here. Blank lines part the entries; values can stand above or below the molecule they belong to.

Assays:
Full length Human HDAC8 = biological target: T1, Full length Human HDAC8 (Homo sapiens, UniProt Q9BY41)
T1 sequence (Q9BY41 1-377): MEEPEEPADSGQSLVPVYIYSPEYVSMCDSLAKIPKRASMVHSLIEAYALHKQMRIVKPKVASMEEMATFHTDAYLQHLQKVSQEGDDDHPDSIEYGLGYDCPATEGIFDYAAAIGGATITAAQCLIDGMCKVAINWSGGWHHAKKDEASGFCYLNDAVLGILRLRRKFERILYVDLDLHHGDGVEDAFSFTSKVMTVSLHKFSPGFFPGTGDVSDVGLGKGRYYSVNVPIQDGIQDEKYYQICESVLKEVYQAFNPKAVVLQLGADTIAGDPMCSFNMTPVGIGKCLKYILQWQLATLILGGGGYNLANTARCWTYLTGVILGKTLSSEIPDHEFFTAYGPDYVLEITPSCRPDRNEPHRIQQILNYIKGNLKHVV

[1] = system: tubulin acetylation (acTubK40) in undifferentiated SH-SY5Y cells; assay: Tubulin acetylation in cells (Western immunoblot); format: cell-based; conditions: Homo sapiens, 4 hours, acetylTubulin/Tubulin ratio
Description: (§1) Compound EC50 Determination for Tubulin- and Histone H3 Acetylation in Cells
(§2) Estimation of the EC50 for exemplary compounds to alter target protein acetylation in undifferentiated SH-SY5Y cells was performed using standard Western immunoblotting methods. […] SH-SY5Y cells were grown to 90% confluency on sterile cell growth plates. 10 mM compound stocks prepared in DMSO and two-fold serial dilutions were prepared from the stock and applied to cells to achieve a 12-point concentration range in cell media from an upper limit of 10 μM to a lower limit of DMSO [zero compound].
(§3) Cells were incubated under normal growth conditions (37° C., 5% CO2) in the presence of compound for 4 hours, then media was aspirated and cells were rinsed two times with 1×DPBS with calcium and magnesium warmed to 37° C. Cells were frozen directly on the plates on a bed of dry ice for 5 min, then stored at −80° C. until protein extraction.
(§4) Protein extraction was performed in RIPA buffer (50 mM Tris-HCL pH 8.0, 150 mM NaCl, 0.5% sodium deoxycholate, 0.1% sodium dodecyl sulfate, 1% NP-40) supplemented with Pierce protease inhibitor mini tables (Thermofisher cat #A32953) exactly as described by the manufacturer. After thawing the plate on a bed of wet ice for 10 minutes, lysis buffer was added to each well (e.g. 100 μL per well of a 24-well plate) and cells scraped from the bottom of each well. Lysates were then sonicated over ice (40% power, 30 pulses of 1 second on, 2 seconds off), centrifuged at 16,000 g for 10 min at 4° C., and the clarified supernatant saved. Protein concentration was determined by BCA assay and at least 3 μg prepared per lane by combining lysate supernatant aliquot with 1/3 total volume of 3× gel loading buffer containing DTT (NEB Cat. #B7703S), heating for 5 minutes at 95° C., briefly centrifuging and then loading on an SDS-PAGE gel.
(§5) Proteins were resolved on a 4-20% Tris-Glycine gel and transferred to PVDF membrane using an iBlot2 dry transfer system. The membrane was then blocked for at least 30 minutes at room temperature in TBST containing 5% milk or 5% bovine serum albumin, then incubated overnight at 4° C. with a single primary antibody from the following table:
(§6) Following primary antibody incubation, membranes were washed, incubated in secondary antibody, washed and incubated in ECL prime western blotting detection reagent (Amersham #RPN223) with membrane exposure and ECL signal capture in a LI-COR Odyssey Imaging system. […] Subsequent densitometry of immunoreactive bands was performed using the ImageStudio software and Microsoft Excel resulting in the following ratios: acetylTubulin/Tubulin and acetyl histone H3K9/histone H3. Raw ratios were uploaded to GraphPad Prism v7.0 with EC50 values modeled using the variable slope equation for log-transformed data [log(agonist) vs response in Prism].

Full length Human HDAC6 = biological target: T2, Full length Human HDAC6 (Homo sapiens, UniProt Q9UBN7); conditions: for Selectivity (6 v 8) (fold): ratio of HDAC8 IC50/HDAC6 IC50
T2 sequence (Q9UBN7 1-1215): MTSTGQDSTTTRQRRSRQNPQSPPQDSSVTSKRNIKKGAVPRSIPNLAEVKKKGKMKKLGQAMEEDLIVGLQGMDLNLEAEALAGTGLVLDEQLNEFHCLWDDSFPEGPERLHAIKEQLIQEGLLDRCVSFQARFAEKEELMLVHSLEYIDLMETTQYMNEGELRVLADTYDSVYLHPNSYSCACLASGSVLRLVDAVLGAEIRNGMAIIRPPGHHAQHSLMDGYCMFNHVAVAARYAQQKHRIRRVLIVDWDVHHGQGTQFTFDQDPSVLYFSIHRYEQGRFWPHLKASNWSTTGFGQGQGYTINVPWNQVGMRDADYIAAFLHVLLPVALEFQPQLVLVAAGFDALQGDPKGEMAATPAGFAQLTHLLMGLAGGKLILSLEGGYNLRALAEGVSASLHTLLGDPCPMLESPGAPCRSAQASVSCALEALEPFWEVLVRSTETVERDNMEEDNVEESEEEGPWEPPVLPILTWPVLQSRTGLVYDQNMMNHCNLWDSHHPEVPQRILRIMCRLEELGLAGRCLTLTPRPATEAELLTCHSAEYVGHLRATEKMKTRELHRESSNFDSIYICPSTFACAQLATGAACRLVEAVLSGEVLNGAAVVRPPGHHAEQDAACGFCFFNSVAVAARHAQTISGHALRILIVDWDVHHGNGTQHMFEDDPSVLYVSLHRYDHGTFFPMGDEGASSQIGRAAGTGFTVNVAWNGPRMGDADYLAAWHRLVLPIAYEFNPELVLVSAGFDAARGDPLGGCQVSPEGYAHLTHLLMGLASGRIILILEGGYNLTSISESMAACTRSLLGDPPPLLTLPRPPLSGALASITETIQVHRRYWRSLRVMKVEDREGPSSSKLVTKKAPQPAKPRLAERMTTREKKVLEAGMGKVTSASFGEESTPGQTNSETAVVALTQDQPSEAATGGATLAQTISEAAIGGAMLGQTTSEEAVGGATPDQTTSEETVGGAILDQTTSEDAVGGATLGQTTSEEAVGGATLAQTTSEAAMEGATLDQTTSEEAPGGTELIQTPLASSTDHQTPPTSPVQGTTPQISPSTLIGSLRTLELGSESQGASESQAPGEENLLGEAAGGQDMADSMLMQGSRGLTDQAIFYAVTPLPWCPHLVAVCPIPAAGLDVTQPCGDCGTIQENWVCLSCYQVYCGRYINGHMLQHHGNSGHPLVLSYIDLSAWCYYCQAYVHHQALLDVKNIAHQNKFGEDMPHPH

[2] = system: histone H3 acetylation (acH3K9) in undifferentiated SH-SY5Y cells; assay: Histone H3 acetylation in cells (Western immunoblot); format: cell-based; conditions: Homo sapiens, 4 hours, acetyl histone H3K9/histone H3 ratio
Description: as §1, §2, §3, §4, §5, §6

[3] = Cell viability in primary rat dorsal root ganglia (DRG); format: cell-based
[4] = Metabolic stability in liver microsomes: Mouse BL6; format: in vitro ADME; conditions: 1 μM compound, 0.3 mg/mL protein, NADPH, 37° C., read-out: Mouse BL6 Liver Microsome Stability Half-life
[5] = system: SH-SY5Y, human neuroblastoma; conditions: 30 µM
[6] = system: HEK293, human embryonic kidney; conditions: 30 µM

IC50 (Full length Human HDAC8): 0.1 to 1 µM
EC50 [1]: 1.7 µM
IC50 (Full length Human HDAC6): 0.001 to 0.1 µM
EC50 [2]: > 10 µM
Structure (SMILES): Cn1c2c(c3ccccc31)CCN(Cc1ccc(C(=O)NO)cc1F)C2 [compound 45]

Structure (SMILES): O=C(CCCCCCNC(=O)c1cnc(N(c2ccccc2)c2ccccc2)nc1)NO [Ricolinostat]
CC50 at 72 h [3]: 5.2 µM

Structure (SMILES): O=C(NO)c1ccc(CN2C3CCCC2COC3)c(F)c1 [compound 52]
IC50 (Full length Human HDAC8): 0.1 to 1 µM
half-life at 1 μM [4]: 4.83 h
IC50 (Full length Human HDAC6): 0.001 to 0.1 µM
Selectivity (6 v 8) (fold) (Full length Human HDAC6; Table 1, number): 35.5 fold
Selectivity (6 v 8) (fold) (Full length Human HDAC6; Table 1, range class): III (III: >10-100)

Structure (SMILES): CN1CCc2c(c3ccccc3n2Cc2ccc(C(=O)NO)cc2)C1 [Tubastatin A]
Cell viability (percent luminescence ± SD) SH-SY5Y 4 hrs [5]: 105.8 ± 15%
Cell viability (percent luminescence ± SD) SH-SY5Y 24 hrs [5]: 117.3 ± 4.1%
viability [6]: 88.9% and 55.3%
